This assay has as its target T1, NMDA receptor (Rattus norvegicus, UniProt P35439+Q00960).
T1 construct: Membranes were prepared by homogenization of the whole brain minus cerebellum and medulla oblongata; from tissue; host or cells: rat whole brain minus cerebellum and medulla oblongata (membranes)
The assay can be described thus: 3H-Ro 25-6981 binding (displacement) on rat brain membranes. Details: species or system Füllinsdorf albino rats. How it is done: 3H-Ro 25-6981 binding (Ro 25-6981 is [R-(R*,S*)]-a-(4-Hydroxy-phenyl)-b-methyl-4-(phenyl-methyl)-1-piperidine propanol)
Male Füllinsdorf albino rats weighing between 150-200 g were used. Membranes were prepared by homogenization of the whole brain minus cerebellum and medulla oblongata with a Polytron (10.000 rpm, 30 seconds), in 25 volumes of a cold Tris-HCl 50 mM, EDTA 10 mM, pH 7.1 buffer. The homogenate was centrifuged at 48.000 g for 10 minutes at 4°C. The pellet was resuspended using the Polytron in the same volume of buffer and the homogenate was incubated at 37°C for 10 minutes. After centrifugation the pellet was homogenized in the same buffer and frozen at -80°C for at least 16 hours but not more than 10 days. For the binding assay the homogenate was thawed at 37°C, centrifuged and the pellet was washed three times as above in a Tris-HCl 5 mM, pH 7.4 cold buffer. The final pellet was resuspended in the same buffer and used at a final concentration of […] of protein/ml.
3H-Ro 25-6981 binding experiments were performed using a Tris-HCl 50 mM, pH 7.4 buffer. For displacement experiments 5 nM of 3H-Ro 25-6981 were used and non specific binding was measured using 10 mM of tetrahydroisoquinoline and usually it accounts for 10% of the total. The incubation time was 2 hours at 4°C and the assay was stopped by filtration on Whatmann GF/B glass fiber filters (Unifilter-96, Packard, Zürich, Switzerland). The filters were washed 5 times with cold buffer. The radioactivity on the filter was counted on a Packard Top-count microplate scintillation counter after addition of […] of microscint 40 (Canberra Packard S.A., Zürich, Switzerland).
The effects of compounds were measured using a minimum of 8 concentrations and repeated at least once. The pooled normalized values were analyzed using a non-linear regression calculation program which provide IC50 with their relative upper and lower 95% confidence limits (RS1, BBN, USA).

Setting [1] is: displacement of 5 nM 3H-Ro 25-6981, rat whole brain membranes (minus cerebellum and medulla oblongata), 2 hours at 4°C, read-out: IC50.

SMILES strings stand for the structures. Like-named read-outs stand apart in the source and are kept apart here.

T1 sequence (Q00960 27-1482, other chains not shown): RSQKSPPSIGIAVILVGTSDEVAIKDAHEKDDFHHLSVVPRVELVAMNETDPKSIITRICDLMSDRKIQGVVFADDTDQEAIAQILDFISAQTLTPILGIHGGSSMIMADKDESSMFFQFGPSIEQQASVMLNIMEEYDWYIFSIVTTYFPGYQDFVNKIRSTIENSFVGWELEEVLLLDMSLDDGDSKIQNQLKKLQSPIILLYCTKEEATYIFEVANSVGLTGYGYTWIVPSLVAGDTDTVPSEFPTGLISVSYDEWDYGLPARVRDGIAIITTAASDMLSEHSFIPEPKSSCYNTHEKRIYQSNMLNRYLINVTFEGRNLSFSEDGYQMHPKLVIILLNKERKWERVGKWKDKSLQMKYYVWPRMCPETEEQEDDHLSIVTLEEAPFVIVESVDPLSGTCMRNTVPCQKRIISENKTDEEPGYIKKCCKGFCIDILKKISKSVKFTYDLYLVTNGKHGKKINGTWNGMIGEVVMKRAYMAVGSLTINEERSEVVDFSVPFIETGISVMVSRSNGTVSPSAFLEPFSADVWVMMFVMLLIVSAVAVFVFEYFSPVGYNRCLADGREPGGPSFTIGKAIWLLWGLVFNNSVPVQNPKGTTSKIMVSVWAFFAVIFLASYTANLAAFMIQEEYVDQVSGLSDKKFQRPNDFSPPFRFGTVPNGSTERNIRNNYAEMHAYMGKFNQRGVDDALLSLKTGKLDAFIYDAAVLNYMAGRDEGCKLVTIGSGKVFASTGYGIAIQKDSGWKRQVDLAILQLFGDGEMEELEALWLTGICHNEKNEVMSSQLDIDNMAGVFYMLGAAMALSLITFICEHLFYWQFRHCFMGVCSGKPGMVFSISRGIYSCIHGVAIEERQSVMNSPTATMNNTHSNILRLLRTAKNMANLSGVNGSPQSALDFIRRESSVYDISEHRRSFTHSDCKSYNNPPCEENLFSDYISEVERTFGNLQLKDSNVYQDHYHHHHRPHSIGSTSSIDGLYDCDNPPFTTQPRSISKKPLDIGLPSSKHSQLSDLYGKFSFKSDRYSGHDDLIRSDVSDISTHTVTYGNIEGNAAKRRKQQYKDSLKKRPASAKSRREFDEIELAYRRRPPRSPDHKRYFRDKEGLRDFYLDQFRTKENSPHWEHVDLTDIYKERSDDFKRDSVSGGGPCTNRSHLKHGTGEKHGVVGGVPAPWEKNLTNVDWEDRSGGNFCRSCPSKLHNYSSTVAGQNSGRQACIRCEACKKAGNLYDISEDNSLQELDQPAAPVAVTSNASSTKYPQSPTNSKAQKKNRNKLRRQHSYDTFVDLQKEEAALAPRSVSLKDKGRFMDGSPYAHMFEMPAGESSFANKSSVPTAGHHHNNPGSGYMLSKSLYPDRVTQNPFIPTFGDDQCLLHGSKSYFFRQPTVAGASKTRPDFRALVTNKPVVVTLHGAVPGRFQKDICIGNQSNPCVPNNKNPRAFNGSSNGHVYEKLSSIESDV

What is called IC50 is the concentration needed to halve the response being measured. Regarding `Oc1ccc([C@H]2CC[C@H](NCC(O)Cc3ccccc3)CC2)cc1` (mixture of isomers) [Example 50, (RS)-4-[trans-4-(2-Hydroxy-3-phenyl-propylamino)-cyclohexyl]-phenol], the IC50 under setting [1] came to 80 nM.
The same measure, in the same setting: the value for `CC(CCc1ccccc1)N(C)[C@H]1CC[C@H](c2ccc(O)cc2)CC1` (mixture of isomers) [Example 57b, (RS)-4-[trans-4-[Methyl-(1-methyl-3-phenyl-propyl)-amino]-cyclohexyl]-phenol] was 10 nM.
Consider `CC(CCc1ccccc1)N[C@H]1CC[C@H](c2ccc(O)cc2)CC1` (mixture of isomers) [Example 58, 4-[trans-4-[(RS)-1-Methyl-3-phenyl-propylamino)-cyclohexyl]-phenol], for which the IC50 under setting [1] was determined as 40 nM.
Take `CN(CCC(O)c1ccccc1)[C@H]1CC[C@H](c2ccc(O)cc2)CC1` (mixture of isomers) [Example 63b, (RS)-4-[trans-4-[(3-Hydroxy-3-phenyl-propyl)-methyl-amino]-cyclohexyl]-phenol]: the IC50 under setting [1] turned out to be 20 nM.
Consider `Oc1ccc([C@H]2CC[C@H](NCCC(O)c3ccccc3)CC2)cc1` (mixture of isomers) [Example 64b, (RS)-4-[trans-4-(3-Hydroxy-3-phenyl-propylamino)-cyclohexyl]-phenol], for which the IC50 under setting [1] amounted to 60 nM.
Regarding `CN(C(CO)CCc1ccccc1)[C@H]1CC[C@H](c2ccc(O)cc2)CC1` (mixture of isomers) [Example 65b, (RS)-4-[trans-4-[(1-Hydroxymethyl-3-phenyl-propyl)-methyl-amino]-cyclohexyl]-phenol], the IC50 under setting [1] came out at 10 nM.
Take `OCC(CCc1ccccc1)N[C@H]1CC[C@H](c2ccc(O)cc2)CC1` (mixture of isomers) [Example 66c, (RS)-4-[trans-4-(1-Hydroxymethyl-3-phenyl-propylamino)-cyclohexyl]-phenol]: the IC50 under setting [1] was 20 nM.
As to `CN(CCC(CO)c1ccccc1)[C@H]1CC[C@H](c2ccc(O)cc2)CC1` (mixture of isomers) [Example 67b, (RS)-4-[trans-4-[(4-Hydroxy-3-phenyl-butyl)-methyl-amino]-cyclohexyl]-phenol], under setting [1], the IC50 worked out at 100 nM.
Same read-out and setting: the value for `OCC(CN[C@H]1CC[C@H](c2ccc(O)cc2)CC1)Cc1ccccc1` (mixture of isomers) [Example 70b, (RS)-4-[trans-4-(2-Hydroxymethyl-3-phenyl-propylamino)-cyclohexyl]-phenol] was 100 nM; that for `C[C@@H]1C[C@H](c2ccc(O)cc2)CC[C@H]1N(C)CCCc1ccccc1` (racemic) [Example 73b, (1RS,3RS,4RS)-4-[3-Methyl-4-[methyl-(3-phenyl-propyl)-amino]-cyclohexyl]-phenol] was 10 nM; that for `C[C@@H]1C[C@H](c2ccc(O)cc2)CC[C@H]1NCCCc1ccccc1` (racemic) [Example 74c, (1RS,3RS,4RS)-4-[3-Methyl-4-(3-phenyl-propylamino)-cyclohexyl]-phenol] was 10 nM.
Regarding `C[C@@H]1CN(c2ccc(O)cc2)CC[C@@H]1NCCCc1ccccc1` (racemic) [Example 81g, (3RS,4SR)-4-[3-Methyl-4-(3-phenyl-propylamino)-piperidin-1-yl]-phenol], the IC50 under setting [1] came to 27 nM.
Turning to `Oc1ccc([C@H]2CC[C@H](NCCCc3ccccc3)CC2)cc1` [Example 22b, trans-4-[4-(3-Phenyl-propylamino)-cyclohexyl]-phenol], under setting [1], the IC50 was 20 nM.
Same read-out and setting: the value for `Oc1ccc([C@H]2CC[C@H](NCCCCc3ccccc3)CC2)cc1` [Example 24, trans-4-[4-(4-Phenyl-butylamino)-cyclohexyl]-phenol] was 70 nM; that for `CN(CCCc1ccccc1)[C@H]1CC[C@H](c2ccc(O)cc2)CC1` [Example 39b, trans-4-{4-[Methyl-(3-phenyl-propyl)-amino]-cyclohexyl}-phenol] was 9 nM; that for `CCN(CCCc1ccccc1)[C@H]1CC[C@H](c2ccc(O)cc2)CC1` [Example 40c, trans-4-{4-[Ethyl-(3-phenyl-propyl)-amino]-cyclohexyl}-phenol] was 40 nM.
With `CN(CCOc1ccccc1)[C@H]1CC[C@H](c2ccc(O)cc2)CC1` [Example 41b, trans-4-{4-[Methyl-(2-phenoxy-ethyl)-amino]-cyclohexyl}-phenol], under setting [1], the IC50 was 20 nM.
Take `Oc1ccc([C@H]2CC[C@H](NCCOc3ccccc3)CC2)cc1` [Example 43b, trans-4-[4-(2-Phenoxy-ethylamino)-cyclohexyl]-phenol]: the IC50 under setting [1] was found to be 20 nM.
For `Cc1ccc(OCCN(C)[C@H]2CC[C@H](c3ccc(O)cc3)CC2)cc1` [Example 44b, trans-4-[4-[Methyl-(2-p-tolyloxy-ethyl)-amino]-cyclohexyl]-phenol], the IC50 under setting [1] was 8 nM.
On to `Cc1ccc(OCCN(C)[C@H]2CC[C@@H](c3ccc(O)cc3)CC2)cc1` [Example 45b, cis-4-[4-[Methyl-(2-p-tolyloxy-ethyl)-amino]-cyclohexyl]-phenol], for which the IC50 under setting [1] was determined as 130 nM.
For the compound `CN(CCOc1ccc(F)cc1)[C@H]1CC[C@H](c2ccc(O)cc2)CC1` [Example 46b, trans-4-(4-{[2-(4-Fluoro-phenoxy)-ethyl]-methyl-amino}-cyclohexyl)-phenol], the IC50 under setting [1] is 10 nM.
Turning to `Cc1cccc(OCCN(C)[C@H]2CC[C@H](c3ccc(O)cc3)CC2)c1` [Example 47b, trans-4-{4-[Methyl-(2-m-tolyloxy-ethyl)-amino]-cyclohexyl}-phenol], under setting [1], the IC50 came to 30 nM.
For the compound `Cc1ccccc1OCCN(C)[C@H]1CC[C@H](c2ccc(O)cc2)CC1` [Example 48c, trans-4-{4-[Methyl-(2-o-tolyloxy-ethyl)-amino]-cyclohexyl}-phenol], under setting [1], the IC50 was 40 nM.
Regarding `CN(CCCc1ccccc1)[C@H]1CC[C@H](c2ccc(NS(C)(=O)=O)cc2)CC1` [Example 56, trans-N-(4-{4-[Methyl-(3-phenyl-propyl)-amino]-cyclohexyl}-phenyl)-methanesulfonamide], the IC50 under setting [1] came to 11 nM.
The same measure, in the same setting: the value for `Cc1ccc(CCCN[C@H]2CC[C@H](c3ccc(O)cc3)CC2)cc1` [Example 60b, trans-4-[4-(3-p-Tolyl-propylamino)-cyclohexyl]-phenol] was 7 nM.
`CN(CCCc1ccc(F)cc1)[C@H]1CC[C@H](c2ccc(O)cc2)CC1` [Example 61b, trans-4-(4-{[3-(4-Fluoro-phenyl)-propyl]-methyl-amino}-cyclohexyl)-phenol]: the IC50 under setting [1] is 4 nM.
Same read-out and setting: the value for `Oc1ccc([C@H]2CC[C@H](NCCCc3ccc(F)cc3)CC2)cc1` [Example 62b, trans-4-[4-[3-(4-Fluoro-phenyl)-propylamino]-cyclohexyl]-phenol] was 6 nM.
Consider `Oc1ccc(C2(O)CCC(NCCCc3ccccc3)CC2)cc1` (stereo not drawn) [Example 71c, cis-4-[1-Hydroxy-4-(3-phenyl-propylamino)-cyclohexyl]-phenol], for which the concentration for half-maximal inhibition (IC50) amounted to 25 nM.
Consider `CN(CCCc1ccccc1)C1CCN(c2ccc(O)cc2)CC1` [Example 75, 4-[4-[Methyl-(3-phenyl-propyl)-amino]-piperidin-1-yl]-phenol], for which, under setting [1], the IC50 turned out to be 7 nM.
For `Oc1ccc(N2CCC(NCCCc3ccccc3)CC2)cc1` [Example 77, 4-[4-(3-Phenyl-propylamino)-piperidin-1-yl]-phenol], the IC50 under setting [1] is 7 nM.
Regarding `Oc1ccc(N2CCC(NCCCCc3ccccc3)CC2)cc1` [Example 83c, 4-[4-(4-Phenyl-butylamino)-piperidin-1-yl]-phenol], the IC50 under setting [1] was found to be 60 nM.
Take `Oc1ccc([C@H]2OC[C@H](NCCCc3ccccc3)CO2)cc1` [Example 85, trans-4-[5-(3-Phenyl-propylamino)-[1,3]dioxan-2-yl]-phenol 1:1 but-2-enedioic acid]: the IC50 turned out to be 22 nM.

Values taken from patent EP0982026A2, “Use of aryl-cyclohexylamine derivatives in the manufacture of NMDA receptor blockers” (priority 1998, dated 2000).
